Experimental data published in PMC9065678, “BI 1015550 is a PDE4B Inhibitor and a Clinical Drug Candidate for the Oral Treatment of Idiopathic Pulmonary Fibrosis” (Frontiers in Pharmacology, 2022).
pIC50: −log10 of the molar value.

Assays:
[1] = system: α-SMA protein expression; test: α-SMA protein expression of TGF-β-stimulated IPF lung fibroblasts (Western blot replacement assay); format: cell-based, human; conditions: alone, up to the highest concentration of 100 nmol/L
Experimental: (§1) Fibroblasts from donors with IPF (IPF-LF) (Asterand, Detroit, MI, United States) were grown in fibroblast basal medium (CC-3131, Lonza Walkersville, Inc., Walkersville, MD, United States) supplemented with FGM-2 SingleQuot Kit Supplements and Growth Factors (CC-4126, Lonza). Cells were grown in a humidified incubator at 37°C and 5% CO2. All assays were performed at passage 7 or 8. For assay set-up, cells were seeded in fibroblast growth medium plus supplements in assay-relevant densities. For TGF-β-stimulated assays, cells were seeded at 4,500 cells per well in 96-well plates. Proliferation assays were performed in 96-well plates at an initial seeding cell density on day 0 of 2,000 cells per well. After 24-h, the cell culture medium was changed to starvation medium (fibroblast basal medium without supplements). After a 24-h starvation period, cells were pre-incubated for 30 min with different concentrations of BI 1015550 plus/minus different concentrations of nintedanib and/or 1 nmol/L PGE2 and stimulated with the assay-relevant stimulus for the indicated time in the presence of the compound.
For determination of α-SMA protein expression, IPF-LF cells were stimulated with TGF-β (4 ng/mL) for 48 h. Lysates were assayed in a Western blot replacement assay (MSD). In short, lysates were pipetted onto high binding plates (MSD) and were sequentially incubated with a mouse anti-human α-SMA antibody (Sigma Aldrich) and an anti-mouse sulfo-tag antibody (MSD). For analysis, an MSD sector imager was used.

[2] = system: IPF-LF cells; test: bFGF plus IL-1β-induced proliferation of IPF lung fibroblasts (bromodeoxyuridine assay); format: cell-based; conditions: Homo sapiens, Fibroblast, read-out: Inhibition of proliferation
Experimental: as §1
IPF-LF cells were stimulated with bFGF (20 ng/mL) plus IL-1β (30 pg/mL). After 72 h of stimulation, 10-times concentrated bromodeoxyuridine was added and the cells were incubated for another 18 h (final concentration bromodeoxyuridine 10 μmol/L). Cell proliferation was assessed by bromodeoxyuridine assay (Roche, Mannheim, Germany) according to the instruction manual.

[3] = biological target: T1, PDE4D (Homo sapiens, UniProt Q08499); test: Recombinant PDE activity, scintillation proximity assay: PDE4D; format: biochemical; conditions: human recombinant active site fragment, substrate [3H]cAMP, means from n independent experiments; read-out: IC50 PDE4D2
T1 construct: PDE4D NG_027957, AA 79–438; made in house; host or cells: SF9 insect cells (baculovirus, Bac-To-Bac, pFastbac)
Experimental: (§2) For the preparation of human recombinant PDEs of interest, the Bac-To-Bac baculoviral expression system from Invitrogen (Carlsbad, CA, United States) was used according to the instruction manual. […] The plasmids were transformed into DH10Bac bacteria, SF9 insect cells were transfected with the bacmid DNA, and the resulting baculoviruses were stored and used for further rounds of infections. For protein production, SF9 cells were infected until a cytopathic effect was visible (after about 72 h), the SF9 cells were harvested and broken up by 3 freeze/thaw cycles, and by shearing 10 times through a 0.1 mm cannula using a syringe. […] The Phosphodiesterase Scintillation Proximity Assays (TRKQ7090 for [^3H]cAMP, GE Healthcare Europe GmbH, Chalfont St Giles, United Kingdom, and TRKQ7100 for [^3H]cGMP, Perkin Elmer, Waltham, MA, United States) were performed essentially according to the instruction manual. […] Assay solutions containing recombinant baculoviral-expressed PDE (to give an activity of 5.000–20.000 cpm corresponding to 5–20% of total activity added), 50 mmol/L Tris/HCl pH 7.5, 8.3 mmol/L MgCl2, 1.7 mmol/L EGTA, and 10 µL radiolabeled substrate (0.05 µCi in H2O) were incubated for 1 h at 30°C (final volume 100 μL).

[4] = biological target: T2, PDE4B (Homo sapiens, UniProt Q07343); test: Recombinant PDE activity, scintillation proximity assay: PDE4B; format: biochemical; conditions: human recombinant active site fragment, substrate [3H]cAMP, means from n independent experiments; read-out: IC50 PDE4B2
T2 construct: PDE4B NG_029038: AA 152–484; made in house; host or cells: SF9 insect cells (baculovirus, Bac-To-Bac, pFastbac)
Experimental: as §2

[5] = biological target: T3, PDE4C (Homo sapiens, UniProt Q08493); test: Recombinant PDE activity, scintillation proximity assay: PDE4C; format: biochemical; conditions: substrate [3H]cAMP, means from n independent experiments, read-out: IC50 PDE4C2
T3 construct: made in house; host or cells: SF9 insect cells (baculovirus, Bac-To-Bac, pFastbac)
Experimental: as §2

[6] = biological target: T4, PDE4A (Homo sapiens, UniProt P27815); test: Recombinant PDE activity, scintillation proximity assay: PDE4A; format: biochemical; conditions: substrate [3H]cAMP, means from n independent experiments
T4 construct: PDE4A (NG_029594, AA 156–886); made in house; host or cells: SF9 insect cells (baculovirus, Bac-To-Bac, pFastbac)
Experimental: as §2

[7] = system: LPS-induced lung neutrophil influx; test: LPS-induced lung neutrophil influx in male Wistar rats; format: in vivo, rat; conditions: Rattus norvegicus, Neutrophil, oral, data not shown
From the text: (§3) Compared with other animal species used to study emesis induction by PDE4 inhibitors, like ferrets, dogs, minipigs, or monkeys, Suncus murinus allows the testing of a sufficient number of animals to provide a high statistical power. […] Male Suncus murinus (weight 50–55 g) from Boehringer Ingelheim (Biberach an der Riss, Germany) or male Wistar rats (200–250 g, Charles River), eight animals per group, were used. […] For this purpose, animals in the positive control and treatment groups were put into a circular Plexiglas chamber with 16 pie-like compartments for one animal each, and were consecutively exposed to nebulized LPS for 30 min. The LPS solution used for nebulization contained 1 mg/mL LPS in phosphate-buffered saline (PBS). Nebulization was performed with the commercially available PARI Master® nebulizer with a PARI Master® LL adapter (Pari GmbH, Starnberg, Germany). 4 h after LPS exposure, the animals were anesthetized and euthanized by cervical dislocation. After sacrifice, the trachea was cannulated and bronchoalveolar lavage was performed by instilling and re-aspirating two-times 1 mL (Suncus murinus) or 5 mL (rat) lavage buffer (PBS +2% bovine serum albumin). BALF volumes were recorded manually. Determination of neutrophil numbers in BALF was performed using a blood hemacytometer (Sysmex XT-1800i, Kobe, Japan).

[8] = system: Suncus murinus; test: Determination of emesis in male Suncus murinus; format: in vivo
Experimental: All animals (50–55 g) were dosed orally by gavage immediately before transfer to whole-body plethysmography boxes. The volume of application was set to 10 mL/kg body weight. For assessment of the emetic events, animals were placed in the whole-body plethysmography boxes without any access to feed or water for 3 h. The whole-body plethysmography system used to detect emetic events consisted of five major components: 1) plethysmography boxes for mice (Buxco®, PLY 3211-F, Data Sciences International, New Brighton, MN, United States), 2) a pressure transducer with an amplifier, 3) a bias flow regulator, 4) a PC-based system to receive and process the amplified signals, and 5) a PC-based data acquisition system (NOTOCORD-hem™, Instem, Stone, United Kingdom) to process signals, as well as in-house-developed software to detect and identify changes in breathing pattern. Retching and vomiting induced characteristic changes in the breathing pattern of animals and these were recorded by whole-body plethysmography and translated for NOTOCORD recording. A number of preset definitions (computer-based criteria) characteristic for emetic events were determined. Peaks that met the set internal computer-based criteria and exceeded the threshold of more than 600 mV were labeled as emetic events by the system on a standard basis.

[9] = system: LPS-induced neutrophil influx into the BALF; test: LPS-induced neutrophil influx into the BALF of Suncus murinus; format: in vivo; conditions: Neutrophil, oral, 30 min before nebulized LPS, read-out: ED50 LPS-induced BALF neutrophils
From the text: as §3

T4 sequence (P27815 156-886): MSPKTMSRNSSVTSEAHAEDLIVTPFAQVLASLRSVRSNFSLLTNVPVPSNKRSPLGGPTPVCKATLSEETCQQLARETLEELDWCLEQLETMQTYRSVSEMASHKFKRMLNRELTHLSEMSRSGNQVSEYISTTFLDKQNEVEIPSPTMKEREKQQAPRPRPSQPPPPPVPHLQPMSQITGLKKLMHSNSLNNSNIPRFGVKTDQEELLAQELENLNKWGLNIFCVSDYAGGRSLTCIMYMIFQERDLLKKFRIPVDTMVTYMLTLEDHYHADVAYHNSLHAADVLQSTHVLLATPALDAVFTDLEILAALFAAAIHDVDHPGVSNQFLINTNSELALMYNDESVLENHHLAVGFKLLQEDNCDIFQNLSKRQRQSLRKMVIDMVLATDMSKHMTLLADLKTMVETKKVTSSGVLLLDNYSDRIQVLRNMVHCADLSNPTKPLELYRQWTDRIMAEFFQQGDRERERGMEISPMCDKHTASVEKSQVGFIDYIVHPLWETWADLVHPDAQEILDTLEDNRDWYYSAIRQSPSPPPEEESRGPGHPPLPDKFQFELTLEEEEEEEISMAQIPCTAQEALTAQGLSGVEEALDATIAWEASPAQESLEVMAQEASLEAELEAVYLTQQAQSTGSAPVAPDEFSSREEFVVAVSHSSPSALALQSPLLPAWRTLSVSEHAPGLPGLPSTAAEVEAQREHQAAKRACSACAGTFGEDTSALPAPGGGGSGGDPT
T1 sequence (Q08499 381-740): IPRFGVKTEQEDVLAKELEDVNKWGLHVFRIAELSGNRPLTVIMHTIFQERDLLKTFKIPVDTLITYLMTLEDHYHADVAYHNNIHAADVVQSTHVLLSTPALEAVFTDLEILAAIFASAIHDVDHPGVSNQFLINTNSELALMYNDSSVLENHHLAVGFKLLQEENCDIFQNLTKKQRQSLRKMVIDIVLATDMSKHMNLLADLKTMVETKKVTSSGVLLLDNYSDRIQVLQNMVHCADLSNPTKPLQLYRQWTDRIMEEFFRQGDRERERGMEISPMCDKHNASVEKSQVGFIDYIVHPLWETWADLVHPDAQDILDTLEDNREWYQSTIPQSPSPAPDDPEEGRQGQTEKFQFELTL
T3 sequence (Q08493 107-712): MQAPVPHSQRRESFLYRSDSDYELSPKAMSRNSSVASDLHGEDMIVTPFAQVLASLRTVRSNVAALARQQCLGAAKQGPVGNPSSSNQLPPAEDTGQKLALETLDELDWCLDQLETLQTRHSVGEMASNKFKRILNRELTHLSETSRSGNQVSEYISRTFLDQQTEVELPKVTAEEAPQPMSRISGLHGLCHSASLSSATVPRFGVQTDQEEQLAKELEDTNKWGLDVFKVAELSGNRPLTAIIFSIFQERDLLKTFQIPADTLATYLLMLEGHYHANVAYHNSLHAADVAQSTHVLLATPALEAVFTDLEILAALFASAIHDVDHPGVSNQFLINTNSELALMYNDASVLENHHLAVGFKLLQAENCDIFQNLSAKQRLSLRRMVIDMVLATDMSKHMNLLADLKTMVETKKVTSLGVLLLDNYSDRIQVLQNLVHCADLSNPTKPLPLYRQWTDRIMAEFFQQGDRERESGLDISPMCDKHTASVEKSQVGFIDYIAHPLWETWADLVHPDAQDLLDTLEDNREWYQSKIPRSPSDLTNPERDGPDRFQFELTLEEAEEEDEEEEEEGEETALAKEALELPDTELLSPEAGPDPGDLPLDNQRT
T2 sequence (Q07343 324-656): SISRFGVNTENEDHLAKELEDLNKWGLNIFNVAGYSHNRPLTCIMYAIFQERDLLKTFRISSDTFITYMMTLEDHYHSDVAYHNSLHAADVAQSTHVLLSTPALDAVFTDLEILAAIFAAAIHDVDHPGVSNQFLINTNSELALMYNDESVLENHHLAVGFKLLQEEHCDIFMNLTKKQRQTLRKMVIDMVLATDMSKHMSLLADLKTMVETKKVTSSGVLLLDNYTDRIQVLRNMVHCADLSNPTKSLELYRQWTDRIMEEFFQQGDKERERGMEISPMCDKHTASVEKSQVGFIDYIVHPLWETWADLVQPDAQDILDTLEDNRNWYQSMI

In the case of `COC(=O)c1ccc2c(c1)NC(=O)/C2=C(\Nc1ccc(N(C)C(=O)CN2CCN(C)CC2)cc1)c1ccccc1` [Nintedanib, nintedanib, reference compound], the “Inhibitory effect on α-SMA protein expression” value [1] was “no inhibitory effect” and the inhibition at 0.1 µM [2] was 15%.
`O=C(Nc1c(Cl)c[n+]([O-])cc1Cl)c1ccc(OC(F)F)c(OCC2CC2)c1` [Roflu-N-Ox, roflumilast N-oxide, reference compound] was tested, and the pIC50 [3] was 8.85, the pIC50 [4] was 8.85 and the pIC50 [5] was 7.82. The pIC50 [6] was 8.55.
With `O=C(Nc1c(Cl)cncc1Cl)c1ccc(OC(F)F)c(OCC2CC2)c1` [Roflumilast, roflumilast, reference compound] the ED50 [7] was 1 mg/kg, the Animals showing emesis ([8]; 10 × ED50 oral (BI 1015550 6 mg/kg, roflumilast 10 mg/kg)) was 10/24 and the “% of vomiting animals, emesis at 10 × ED50” value ([8]; oral (BI 1015550 6 mg/kg, roflumilast 10 mg/kg), 24 animals) was 42%. For the same compound, the ED50 [9] was 1 mg/kg.
